Data as given in US20100298141A1, “SUBSTITUTED PYRIDINE N-OXIDE HERBICIDES” (E. I. DU PONT DE NEMOURS AND COMPANY, priority 2007, published 2010).

Experiments:
lambsquarters = experiment: Test C pre-/postemergence test; assay type: in vivo, Chenopodium album; details: for Plant response rating, Lambsquarters: 31 g ai/ha, scale 0 to 100 (0 no effect, 100 complete control)
Method in brief: (§1)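 Test chemicals were formulated with surfactant in a non-phytotoxic solvent and sprayed both on freshly planted seeds (preemergence) and on 1- to 4-leaf plants of 2–18 cm (postemergence). Flooded-paddy pots received compound directly into 3 cm of standing water, maintained for the test.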

umbrella sedge = experiment: Test C flooded paddy test; assay type: in vivo, Cyperus difformis; details: Flood
Method in brief: (§2)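 Compound was added to standing water 3 cm above soil, flood maintained, and plants held in a greenhouse before visual scoring against controls at 13 to 15 days.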

Surinam grass = experiment: Test C pre-/postemergence test; assay type: in vivo, Brachiaria decumbens; details: for Plant response rating, Surinam Grass: 31 g ai/ha, scale 0 to 100 (0 no effect, 100 complete control)
Method in brief: as §1

wheat [1] = experiment: Test A pre-/postemergence greenhouse test; assay type: in vivo, Triticum aestivum; details: for Wheat plant response rating: 0 to 100 scale; for Plant response rating, Wheat: 0 to 100 scale where 0 is no effect and 100 is complete control
Method in brief: (§3)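 Greenhouse herbicide screen, pre- and postemergence in parallel. Soil: loam plus sand. Formulation: non-phytotoxic solvent mix with surfactant. Postemergence stage: one to two leaves, 2–10 cm height. Evaluation: visual injury, compared with untreated controls, about 10 days after treatment.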

rice = experiment: Test C flooded paddy test; assay type: in vivo, Oryza sativa; details: Flood
Method in brief: as §2

[2] = test system: common (oilseed) sunflower; experiment: Test C pre-/postemergence test; assay type: in vivo, Helianthus annuus; details: for Plant response rating, Sunflower: 31 g ai/ha, scale 0 to 100 (0 no effect, 100 complete control)
Method in brief: as §1

eastern black nightshade = experiment: Test C pre-/postemergence test; assay type: in vivo, Solanum ptycanthum; details: for Plant response rating, Nightshade: 31 g ai/ha, scale 0 to 100 (0 no effect, 100 complete control)
Method in brief: as §1

bermudagrass = experiment: Test C pre-/postemergence test; assay type: in vivo, Cynodon dactylon; details: for Plant response rating, Bermudagrass: 31 g ai/ha
Method in brief: as §1

Goosegrass = experiment: Test C pre-/postemergence test; assay type: in vivo, Eleusin indica; details: for Plant response rating, Goosegrass: 31 g ai/ha, scale 0 to 100 (0 no effect, 100 complete control)
Method in brief: as §1

wheat [3] = experiment: Test C pre-/postemergence test; assay type: in vivo, Triticum aestivum; details: for Plant response rating, Wheat: 31 g ai/ha, scale 0 to 100 (0 no effect, 100 complete control)
Method in brief: as §1

corn = experiment: Test A pre-/postemergence greenhouse test; assay type: in vivo, Zea mays; details: for Corn plant response rating: 0 to 100 scale; for Plant response rating, Corn: 0 to 100 scale where 0 is no effect and 100 is complete control
Method in brief: as §3

giant foxtail = experiment: Test A pre-/postemergence greenhouse test; assay type: in vivo, Setaria faberi; details: for Foxtail, Giant plant response rating: 0 to 100 scale; for Plant response rating, Foxtail, Giant: 0 to 100 scale where 0 is no effect and 100 is complete control
Method in brief: as §3

morningglory = experiment: Test A pre-/postemergence greenhouse test; assay type: in vivo, Ipomoea spp.; details: for Morningglory plant response rating: 0 to 100 scale; for Plant response rating, Morningglory: 0 to 100 scale where 0 is no effect and 100 is complete control
Method in brief: as §3

barnyardgrass = experiment: Test A pre-/postemergence greenhouse test; assay type: in vivo, Echinochloa crus-galli; details: for Barnyardgrass plant response rating: 0 to 100 scale; for Plant response rating, Barnyardgrass: 0 to 100 scale where 0 is no effect and 100 is complete control
Method in brief: as §3

crabgrass = experiment: Test C pre-/postemergence test; assay type: in vivo, Digitaria sanguinalis; details: for Plant response rating, Crabgrass, Large: 31 g ai/ha, scale 0 to 100 (0 no effect, 100 complete control)
Method in brief: as §1

pigweed = experiment: Test C pre-/postemergence test; assay type: in vivo, Amaranthus retroflexus; details: for Plant response rating, Pigweed: 31 g ai/ha, scale 0 to 100 (0 no effect, 100 complete control)
Method in brief: as §1

redroot pigweed = experiment: Test A pre-/postemergence greenhouse test; assay type: in vivo, Amaranthus retroflexus; details: for Pigweed plant response rating: 0 to 100 scale; for Plant response rating, Pigweed: 0 to 100 scale where 0 is no effect and 100 is complete control
Method in brief: as §3

[4] = 62 g ai/ha, Preemergence, scale 0 to 100
[5] = 31 g ai/ha, scale 0 to 100 (0 no effect, 100 complete control)
[6] = 62 g ai/ha, scale 0 to 100, 0 no effect, 100 complete control, 13 to 15 days
[7] = 125 g ai/ha, scale 0 to 100, 0 no effect, 100 complete control, 13 to 15 days
[8] = 250 g ai/ha, scale 0 to 100, 0 no effect, 100 complete control, 13 to 15 days
[9] = Postemergence, 125 g ai/ha, 0 is no effect, 100 is complete control
[10] = Postemergence, 500 g ai/ha, 0 is no effect, 100 is complete control
[11] = Preemergence, 125 g ai/ha, 0 no effect, 100 complete control
[12] = 62 g ai/ha, Preemergence, scale 0 to 100 (0 no effect, 100 complete control)
[13] = Preemergence, scale 0 to 100 (0 no effect, 100 complete control)
[14] = 125 g ai/ha, preemergence, scale 0 (no effect) to 100 (complete control)
[15] = preemergence, 250 g ai/ha, scale 0 (no effect) to 100 (complete control)

## CC(c1c(C(F)(F)F)nn(C)c1OC(F)F)S(=O)(=O)c1cc(C(C)(C)C)cc[n+]1[O-] (racemic) [Compound 26]
lambsquarters; [4]
  Lambsquarters plant response rating: 40
lambsquarters; Preemergence
  Plant response rating, Lambsquarters: 0
Umbrella sedge; [5]
  Plant response rating, Sedge, Umbrella: 70
Umbrella sedge; [6]
  Plant response rating, Sedge, Umbrella: 80
Umbrella sedge; [7]
  Plant response rating, Sedge, Umbrella: 95
Umbrella sedge; [8]
  Plant response rating, Sedge, Umbrella: 95
Surinam grass; [4]
  Surinam Grass plant response rating: 40
Surinam grass; Preemergence
  Plant response rating, Surinam Grass: 10
Wheat [1]; [9]
  Wheat plant response rating: 10
Wheat [1]; [10]
  Wheat plant response rating: 40
Wheat [1]; [11]
  Wheat plant response rating: 20
Wheat [1]; Preemergence, 500 g ai/ha
  Plant response rating, Wheat: 70
rice; [5]
  Plant response rating, Rice: 0
rice; [6]
  Plant response rating, Rice: 0
rice; [7]
  Plant response rating, Rice: 0
rice; 250 g ai/ha, scale 0 to 100 (0 no effect, 100 complete control)
  Plant response rating, Rice: 80
[2]; [4]
  Sunflower plant response rating: 0
[2]; Preemergence
  Plant response rating, Sunflower: 0
Eastern black nightshade; [4]
  Nightshade plant response rating: 100
Eastern black nightshade; Preemergence
  Plant response rating, Nightshade: 100
bermudagrass; [12]
  Bermudagrass plant response rating: 100
bermudagrass; [13]
  Plant response rating, Bermudagrass: 80
bermudagrass; Preemergence, 250 g ai/ha
  Plant response rating (0 to 100), Bermudagrass: 100
bermudagrass; preemergence, 125 g ai/ha, scale 0 (no effect) to 100 (complete control)
  Bermudagrass plant response rating: 100
Goosegrass; [4]
  Goosegrass plant response rating: 98
Goosegrass; Preemergence
  Plant response rating, Goosegrass: 90
Goosegrass; Preemergence, 250 g ai/ha
  Plant response rating (0 to 100), Goosegrass: 100
Wheat [3]; [4]
  Wheat plant response rating: 0
Wheat [3]; Preemergence
  Plant response rating, Wheat: 0
corn; [9]
  Corn plant response rating: 0
corn; [10]
  Corn plant response rating: 0
corn; [11]
  Corn plant response rating: 20
corn; Preemergence, 500 g ai/ha
  Plant response rating, Corn: 50
Giant foxtail; [9]
  Foxtail, Giant plant response rating: 0
Giant foxtail; [10]
  Foxtail, Giant plant response rating: 30
Giant foxtail; [11]
  Foxtail, Giant plant response rating: 90
Giant foxtail; Preemergence, 500 g ai/ha
  Plant response rating, Foxtail, Giant: 100
morningglory; [9]
  Morningglory plant response rating: 20
morningglory; [10]
  Morningglory plant response rating: 30
morningglory; [11]
  Morningglory plant response rating: 30
morningglory; Preemergence, 500 g ai/ha
  Plant response rating, Morningglory: 100
barnyardgrass; [9]
  Barnyardgrass plant response rating: 0
barnyardgrass; [10]
  Barnyardgrass plant response rating: 0
barnyardgrass; [11]
  Barnyardgrass plant response rating: 60
barnyardgrass; Preemergence, 500 g ai/ha
  Plant response rating, Barnyardgrass: 90
crabgrass; [4]
  Crabgrass, Large plant response rating: 100
crabgrass; Preemergence
  Plant response rating, Crabgrass, Large: 100
crabgrass; Preemergence, 250 g ai/ha
  Plant response rating (0 to 100), Crabgrass, Large: 100
pigweed; [4]
  Pigweed plant response rating: 100
pigweed; Preemergence
  Plant response rating, Pigweed: 85
Redroot pigweed; [9]
  Pigweed plant response rating: 40
Redroot pigweed; [10]
  Pigweed plant response rating: 60
Redroot pigweed; [11]
  Pigweed plant response rating: 90
Redroot pigweed; Preemergence, 500 g ai/ha
  Plant response rating, Pigweed: 100

## Cn1nc(C(F)(F)F)c(C(Cl)S(=O)(=O)c2cccc[n+]2[O-])c1OC(F)F (stereo not shown) [Compound 51]
lambsquarters; [4]
  Lambsquarters plant response rating: 100
lambsquarters; [14]
  Lambsquarters plant response rating: 100
lambsquarters; Preemergence
  Plant response rating, Lambsquarters: 100
lambsquarters; [15]
  Lambsquarters plant response rating: 100
Umbrella sedge; [8]
  Plant response rating, Sedge, Umbrella: 95
Surinam grass; [4]
  Surinam Grass plant response rating: 10
Surinam grass; [14]
  Surinam Grass plant response rating: 98
Surinam grass; Preemergence
  Plant response rating, Surinam Grass: 10
Surinam grass; [15]
  Surinam Grass plant response rating: 100
Wheat [1]; Postemergence, 125 g ai/ha
  Plant response rating, Wheat: 40
Wheat [1]; [10]
  Wheat plant response rating: 60
Wheat [1]; [11]
  Wheat plant response rating: 30
Wheat [1]; Preemergence, 500 g ai/ha
  Plant response rating, Wheat: 50
rice; [6]
  Plant response rating, Rice: 25
rice; [8]
  Plant response rating, Rice: 55
[2]; [4]
  Sunflower plant response rating: 0
[2]; [14]
  Sunflower plant response rating: 0
[2]; Preemergence
  Plant response rating, Sunflower: 0
[2]; [15]
  Sunflower plant response rating: 0
Eastern black nightshade; [14]
  Nightshade plant response rating: 85
Eastern black nightshade; Preemergence
  Plant response rating, Nightshade: 0
Eastern black nightshade; [15]
  Nightshade plant response rating: 100
bermudagrass; [12]
  Bermudagrass plant response rating: 100
bermudagrass; [14]
  Bermudagrass plant response rating: 100
bermudagrass; [13]
  Plant response rating, Bermudagrass: 90
bermudagrass; [15]
  Bermudagrass plant response rating: 100
Goosegrass; [4]
  Goosegrass plant response rating: 100
Goosegrass; [14]
  Goosegrass plant response rating: 100
Goosegrass; Preemergence
  Plant response rating, Goosegrass: 100
Goosegrass; [15]
  Goosegrass plant response rating: 100
Wheat [3]; [4]
  Wheat plant response rating: 10
Wheat [3]; [14]
  Wheat plant response rating: 20
Wheat [3]; Preemergence
  Plant response rating, Wheat: 5
corn; Postemergence, 125 g ai/ha
  Plant response rating, Corn: 0
corn; [10]
  Corn plant response rating: 20
corn; [11]
  Corn plant response rating: 0
corn; Preemergence, 500 g ai/ha
  Plant response rating, Corn: 0
Giant foxtail; Postemergence, 125 g ai/ha
  Plant response rating, Foxtail, Giant: 50
Giant foxtail; [10]
  Foxtail, Giant plant response rating: 90
Giant foxtail; [11]
  Foxtail, Giant plant response rating: 100
Giant foxtail; Preemergence, 500 g ai/ha
  Plant response rating, Foxtail, Giant: 100
morningglory; Postemergence, 125 g ai/ha
  Plant response rating, Morningglory: 60
morningglory; [10]
  Morningglory plant response rating: 60
morningglory; [11]
  Morningglory plant response rating: 50
morningglory; Preemergence, 500 g ai/ha
  Plant response rating, Morningglory: 70
barnyardgrass; Postemergence, 125 g ai/ha
  Plant response rating, Barnyardgrass: 50
barnyardgrass; [10]
  Barnyardgrass plant response rating: 80
barnyardgrass; [11]
  Barnyardgrass plant response rating: 90
barnyardgrass; Preemergence, 500 g ai/ha
  Plant response rating, Barnyardgrass: 100
crabgrass; [4]
  Crabgrass, Large plant response rating: 100
crabgrass; [14]
  Crabgrass, Large plant response rating: 100
crabgrass; Preemergence
  Plant response rating, Crabgrass, Large: 65
crabgrass; [15]
  Crabgrass, Large plant response rating: 100
pigweed; [4]
  Pigweed plant response rating: 100
pigweed; [14]
  Pigweed plant response rating: 100
pigweed; Preemergence
  Plant response rating, Pigweed: 85
pigweed; [15]
  Pigweed plant response rating: 100
Redroot pigweed; Postemergence, 125 g ai/ha
  Plant response rating, Pigweed: 60
Redroot pigweed; [10]
  Pigweed plant response rating: 70
Redroot pigweed; [11]
  Pigweed plant response rating: 100
Redroot pigweed; Preemergence, 500 g ai/ha
  Plant response rating, Pigweed: 100
